Measurements as given in US8440720B2, “Methods of use of antiviral compounds” (Influmedix, Inc., priority 2009, dated 2013).

Molecular target: T1, M2(S31) (Influenza A virus, UniProt P0DOF5)
T1 construct: expressed in transfected cells; host or cells: CHO cell membranes
Assay: Cell-free electrophysiology of M2 proton channels on solid supported membranes (IonGate SURFE2R)
Type: biochemical
Settings: 25 μM compound, activation by pH jump 7.0 to 6.0, read-out: IonGate_M2(S31)_Screen % Inhibition at 25 μM

T1 sequence (P0DOF5 whole entry): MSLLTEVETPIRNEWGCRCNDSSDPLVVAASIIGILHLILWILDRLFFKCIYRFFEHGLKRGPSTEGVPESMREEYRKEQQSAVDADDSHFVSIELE

| SMILES | inhibition at 25 µM [%] |
| --- | --- |
| c1cn(C23CC4CC(CC(C4)C2)C3)cn1 [Cpd 2] | 11 to 50 |
| N=C(N)NC12CC3CC(CC(F)(C3)C1)C2 [Cpd 31, N-(3-Fluoro-adamantan-1-yl)-guanidine] | 11 to 50 |
| CC1(O)C2CC3CC(C2)CC1(N)C3 (stereo not shown) [Cpd 35, 1-Amino-2-methyl-adamantan-2-ol] | 11 to 50 |
| N#CC1C2CC3CC1CC(CN)(C3)C2 (stereo not shown) [Cpd 26, 5-Aminomethyl-adamantane-2-carbonitrile] | 51 to 95 |
| NCC12CC3CC(C1)C(F)C(C3)C2 (stereo not shown) [Cpd 8, C-(4-Fluoro-adamantan-1-yl)-methylamine] | 51 to 95 |
| NC12CC3CC(C1)C(O)C(C3)C2 (stereo not shown) [Cpd 14] | 11 to 50 |
| NC12CC3CC(C1)C(F)(F)C(C3)C2 [Cpd 17, 4,4-Difluoro-adamantan-1-ylamine] | 11 to 50 |
| O=[N+]([O-])C12CC3CC(CC(F)(C3)C1)C2 [Cpd 30, 3-Fluoro-1-nitro-adamantane] | 1 to 10 |
| O=[N+]([O-])CC12CC3CC(C1)C(F)C(C3)C2 (stereo not shown) [Cpd 28, 4-Fluoro-1-nitromethyl-adamantane] | 11 to 50 |
| CC1(F)C2CC3CC1CC(N)(C3)C2 (stereo not shown) [Cpd 18, 4-Fluoro-4-methyl-adamantan-1-ylamine] | 51 to 95 |
| NC12CC3CC(C1)CC(S)(C3)C2 [Cpd 29] | 51 to 95 |
| CC1(O)C2CC3CC1CC(CN)(C3)C2 (stereo not shown) [Cpd 11, 5-Aminomethyl-2-methyl-adamantan-2-ol] | 11 to 50 |
| NC12CC3CC(C1)C(=S)C(C3)C2 [Cpd 19, 5-Amino-adamantane-2-thione] | 11 to 50 |
| Nc1nc(N)n(C23CC4CC(CC(C4)C2)C3)n1 [Cpd 3] | 11 to 50 |
| c1ncn(C23CC4CC(CC(C4)C2)C3)n1 [Cpd 1] | 11 to 50 |
| O=[N+]([O-])CC12CC3CC(C1)C(O)C(C3)C2 (stereo not shown) [Cpd 27, 5-Nitromethyl-adamantan-2-ol] | 11 to 50 |

| SMILES | inhibition at 25 µM [%] |
| --- | --- |
| NC12CC3CC(C1)C(=O)C(C3)C2 [Cpd 15] | 11 to 50 |
| COC12CC3CC(CC(N)(C3)C1)C2 [Cpd 32] | 1 to 10 |
| COC1C2CC3CC1CC(CN)(C3)C2 (stereo not shown) [Cpd 25, C-(4-Methoxy-adamantan-1-yl)-methylamine] | 51 to 95 |
| NC12CC3CC(C1)C1(OCCO1)C(C3)C2 [Cpd 24] | 11 to 50 |
| Nc1ccn(C23CC4CC(CC(C4)C2)C3)n1 [Cpd 4] | 11 to 50 |
| NC12CC3CC(C1)C(CF)C(C3)C2 (stereo not shown) [Cpd 21, 4-Fluoromethyl-adamantan-1-ylamine] | 51 to 95 |
| NCC12CC3CC(C1)C(O)C(C3)C2 (stereo not shown) [Cpd 7] | 11 to 50 |
| NC12CC3CC(C1)C(S)C(C3)C2 (stereo not shown) [Cpd 20, 5-Amino-adamantane-2-thiol] | 11 to 50 |
| NC12CC3CC(C1)C(=NO)C(C3)C2 [Cpd 23, 5-Amino-adamantan-2-one oxime] | 11 to 50 |
| N#CC1C2CC3CC1CC(N)(C3)C2 (stereo not shown) [Cpd 16, 5-Amino-adamantane-2-carbonitrile] | 51 to 95 |
| NC12CC3CC(C1)C(F)C(C3)C2 (stereo not shown) [Cpd 13, 4-Fluoroadamantan-1-amine] | 51 to 95 |
| NC12CC3CC(C1)CC(F)(C3)C2 [Cpd 12] | 51 to 95 |
| NCC(O)C12CC3CC(CC(C3)C1)C2 (racemic) [Cpd 5] | 51 to 95 |
| C1CNC(C23CC4CC(CC(C4)C2)C3)=N1 [Cpd 6] | 51 to 95 |
| NC12CC3CC(CC(C3)C1O)C2 (stereo not shown) [Cpd 34] | 51 to 95 |
